# In patent publication US9133167B2, “Antibacterial quinoline derivatives” (JANSSEN PHARMACEUTICA NV, priority 2012, dated 2015):
# Several values for one entry are separate records, joined by “and”; a condition that tells them apart may be missing. Identical values can stand only once.
# Key:
# [1] = system: Staphylococcus aureus (ATCC29213); assay: Microtitre plate assay, IC90 for bacterial growth, Staphylococcus aureus strain; type: cell-based; conditions: 90% inhibitory concentration for bacterial growth, 24 hours at 37° C., read-out: IC90 (μg/ml) STA B29213
# Procedure: D.2. In-Vitro Method for Testing Compounds for Anti-Bacterial Activity Against a Non-Mycobacterial Strain
# Preparation of Bacterial Suspensions for Susceptibility Testing:
# The bacteria used in this study were grown overnight in flasks containing 100 ml Mueller-Hinton Broth (Becton Dickinson—cat. no. 275730) in sterile de-ionized water, with shaking, at 37° C. Stocks (0.5 ml/tube) were stored at −70° C. until use. Bacteria titrations were performed in microtiter plates to detect the TCID50, in which TCID50 represents the dilution that gives rise to bacterial growth in 50% of inoculated cultures. In general, an inoculum level of approximately 100 TCID50 was used for susceptibility testing.
# Anti Bacterial Susceptibility Testing: IC90 Determination
# Flat-bottom, sterile 96-well plastic microtiter plates were filled with 180 μl of sterile deionized water, supplemented with 0.25% BSA. Subsequently, stock solutions (7.8× final test concentration) of compounds were added in 45 μl volumes in column 2 Serial five-fold dilutions (45 μl in 180 μl) were made directly in the microtiter plates from column 2 to reach column 11. Untreated control samples with (column 1) and without (column 12) inoculum were included in each microtiter plate. Depending on the bacteria type, approximately 10 to 60 CFU per well of bacteria inoculum (100 TCID50), in a volume of 100 μl in 2.8× Mueller-Hinton broth medium, was added to the rows A to H, except column 12. The same volume of broth medium without inoculum was added to column 12 in row A to H. The cultures were incubated at 37° C. for 24 hours under a normal atmosphere (incubator with open air valve and continuous ventilation). At the end of incubation, one day after inoculation, the bacterial growth was quantitated fluorometrically. Therefore resazurin (0.6 mg/ml) was added in a volume of 20 μl to all wells 3 hours after inoculation, and the plates were re-incubated overnight. A change in colour from blue to pink indicated the growth of bacteria. The fluorescence was read in a computer-controlled fluorometer (Cytofluor Biosearch) at an excitation wavelength of 530 nm and an emission wavelength of 590 nm. The % growth inhibition achieved by the compounds was calculated according to standard methods. The IC90 (expressed in μg/ml) was defined as the 90% inhibitory concentration for bacterial growth. The results are shown in Table 7 for an assay using a Staphylococcus aureus strain.
# [2] = system: Mycobacterium smegmatis (ATCC607); assay: In-vitro anti-bacterial activity against strain M. smegmatis ATCC607 (Alamar Blue growth inhibition); type: cell-based; conditions: Mycolicibacterium smegmatis, 90% inhibitory concentration for bacterial growth, 48 hours at 37° C., read-out: IC90 (μg/ml) MSM 607
# Procedure: D.1. In-Vitro Method for Testing Compounds for Anti-Bacterial Activity Against Strain M. Smegmatis ATCC607.
# Flat-bottom, sterile 96-well plastic microtiter plates were filled with 180 μl of sterile deionized water, supplemented with 0.25% BSA. Subsequently, stock solutions (7.8× final test concentration) of compounds were added in 45 μl volumes to a series of duplicate wells in column 2 so as to allow evaluation of their effects on bacterial growth. Serial five-fold dilutions (45 μl in 180 μl) were made directly in the microtiter plates from column 2 to 11 using a customised robot system (Zymark Corp., Hopkinton, Mass.). Pipette tips were changed after every 3 dilutions to minimize pipetting errors with high hydrophobic compounds. Untreated control samples with (column 1) and without (column 12) inoculum were included in each microtiter plate. Approximately 250 CFU per well of bacteria inoculum, in a volume of 100 in 2.8× Mueller-Hinton broth medium, was added to the rows A to H, except column 12. The same volume of broth medium without inoculum was added to column 12 in row A to H. The cultures were incubated at 37° C. for 48 hours in a humidified 5% CO2 atmosphere (incubator with open air valve and continuous ventilation). At the end of incubation, two days after inoculation, the bacterial growth was quantitated fluorometrically. Therefore Alamar Blue (10×) was added to all wells in a volume of 20 and plates were incubated for another 2 hours at […]
# The fluorescence was read in a computer-controlled fluorometer (Cytofluor, Biosearch) at an excitation wavelength of 530 nm and an emission wavelength of 590 nm (gain 30). The percentage growth inhibition achieved by the compounds was calculated according to standard methods and expressed as IC90 […] which defines the 90% inhibitory concentration for bacterial growth.
SMILES,IC90 [1],IC90 [2],melting point
CCn1c(=O)c(C(c2ccc(Cl)cc2)C2(O)CCN(Cc3ccccc3)CC2)cc2cc(Br)ccc21 (centres unmarked) [Compound 2],11.3 µg/mL,3.57 µg/mL,212 °C
CCn1c(=O)c(C(c2ccc(Cl)cc2)C2(O)CCN(Cc3ccccc3)CC2)cc2cc(-c3cccnc3)ccc21 (centres unmarked) [Compound 3],7.1 µg/mL,3.56 µg/mL,172 °C
COc1nc2ccc(Br)cc2cc1C(c1ccc(SC)cc1)C1(O)CCNCC1 (centres unmarked) [Compound 9],7.58 µg/mL,4.78 µg/mL,204 °C
COc1nc2ccc(Br)cc2cc1C(c1ccc(Cl)cc1)C1(O)CCN(C)CC1 (centres unmarked) [Compound 16],5.99 µg/mL,2.39 µg/mL,193 °C
COc1nc2ccc(Br)cc2cc1C(c1ccc(Cl)cc1)C1(O)CCN(Cc2cccc(F)c2)CC1 (centres unmarked) [Compound 17],14.3 µg/mL,14.3 µg/mL,220 °C
COc1nc2ccc(CO)cc2cc1C(c1ccc(Cl)cc1)C1(O)CCN(Cc2ccccc2)CC1 (centres unmarked) [Compound 22],> 16.3 µg/mL,16.3 µg/mL,196 °C

# Second part, the molecule after the results:
IC90 [1],IC90 [2],melting point,SMILES
8.38 µg/mL,7.47 µg/mL,146 °C,COc1nc2ccc(C(=O)Nc3cccnc3)cc2cc1C(c1ccc(Cl)cc1)C1(O)CCN(Cc2ccccc2)CC1 (centres unmarked) [Compound 24]
1.59 µg/mL,6.34 µg/mL,> 250 °C,COc1nc2ccc(Br)cc2cc1C(c1ccc(Cl)cc1)C1(O)CCN(C(=N)N)CC1 (centres unmarked) [Compound 25]
> 30.9 µg/mL,3.09 µg/mL,> 250 °C and 250 °C,O=c1[nH]c2ccc(-c3cccnc3)cc2cc1C(c1ccc(Cl)cc1)C1(O)CCNCC1 (centres unmarked) [Compound 26]
4.4 µg/mL,–,249 °C,O=c1[nH]c2ccc(Br)cc2cc1C(c1ccc2ccccc2c1)C1(O)CCN(Cc2ccccc2)CC1 (centres unmarked) [Compound 80]
